From US20050054620A1, “Paricalcitol as a chemotherapeutic agent” (priority 2003, published 2005) come the findings set out here.

The subject of assay [1] is HL-60 cells. As to the kind of experiment: Soft agar colony assay (clonal proliferation). The format is cell-based. The conditions noted are these: Homo sapiens, 336 h, colonies counted after 14 days, read-out: concentration that caused 50% inhibition (ED50) of clonal growth. The protocol: (§1) A soft agar colony assay was used to test the effect of paricalcitol and 1,25(OH)2D3 on various cancer cell lines. For the soft agar colony assay, trypsinized and washed single-cell suspensions of cells were enumerated and plated into 24 well flat bottom plates using a two-layer soft agar system with a total of 1×10^3 cells/well in a volume of […], as described previously (Kubota et al., supra, 1998).
(§2) Cell lines used in this study were obtained from American Type Culture Collection (Rockville, Md.) and were maintained according to their recommendations. Myeloid leukemia cell lines (HL-60, NB-4, THP-1, U937), lymphoma cell lines (Raji, Ramos, Daudi, Jurkat, Jeko-1, JUDHL) and myeloma cell lines (RPMI-8226, ARH-77, NCI-H929) were grown in RPMI 1640 with 10% FCS. Breast cancer cell lines (MCF-7, MDA-MB-231), brain cancer cell lines (U343, U118, U138, U373, U87), and colon cancer cell lines (HT-29, SW837, SW480, SW620, HCT116) were maintained in DMEM with 10% FCS. Endometrial carcinoma cell line, AN-3 was maintained in Alpha Minimum Essential Medium (a-MEM) with 10% FCS.

The next assay deals with HT-29 cells. Kind of assay: Soft agar colony assay (clonal proliferation). The format is cell-based. The conditions noted are these: Homo sapiens, 336 h, colonies counted after 14 days, read-out: concentration that caused 50% inhibition (ED50) of clonal growth. As to the method: as §1, §2
The next assay concerns NB-4 cells. As to the kind of experiment: Soft agar colony assay (clonal proliferation). The format is cell-based. The conditions noted are these: Homo sapiens, 336 h, colonies counted after 14 days, read-out: concentration that caused 50% inhibition (ED50) of clonal growth. The protocol: as §1, §2
The test system of a further assay is NCI-H929 cells. As to the kind of experiment: Soft agar colony assay (clonal proliferation). It is filed as cell-based. The conditions noted are these: Homo sapiens, 336 h, colonies counted after 14 days, read-out: concentration that caused 50% inhibition (ED50) of clonal growth. The protocol: as §1, §2
The next assay deals with SW837. As to the kind of experiment: Soft agar colony assay (clonal proliferation). It is filed as cell-based. To be noted: Homo sapiens, 336 h, colonies counted after 14 days, read-out: concentration that caused 50% inhibition (ED50) of clonal growth. The protocol: as §1, §2
A further assay deals with THP-1. Kind of assay: Soft agar colony assay (clonal proliferation). It is filed as cell-based. The conditions noted are these: Homo sapiens, 336 h, colonies counted after 14 days, read-out: concentration that caused 50% inhibition (ED50) of clonal growth. The protocol:
as §1, §2

In assay [2] the test system is HL-60 cells. Kind of assay: Morphological analysis, Wright-Giemza stain. The format is cell-based, human. The conditions noted are these: 10^−7M, 120 hrs. As to the method: (A) Cell cycle analysis of HL-60 cells by flow cytometry. HL-60 cells were cultured with paricalcitol (10^−7 M) for 72 hrs, harvested and stained with propidium iodine (PI). Control cells were treated with vehicle alone. Results represent the mean±SD of three independent experiments. (B) HL-60 or NB-4 cells were treated with either paricalcitol (10^−7 M) or 1,25(OH)2D3 (10^−7 M). Cell lysates were prepared after 72 hrs and analyzed by Western blot with a series of antibodies (p21WAF1, p27KIP1, PTEN). Control cells were treated with vehicle alone. The amounts of protein were normalized by comparison to levels of GAPDH. […] Dashed line indicates negative control antibody; black area, CD14 antibody. CD14 positive cells are in the area shown by M2. (D) HL-60 cells were cultured with paricalcitol (10^−7 M) for 120 hrs, fixed and stained with Wright-Giemza stain for morphological analysis.

Assay [3] deals with THP-1 myeloid leukemia cells. Kind of assay: MTT assay. It is filed as cell-based, human. To be noted: 4 day exposure. (Tetrazolium assays rely on reduction of a dye to a coloured formazan, in cell work by metabolically active cells.)
In assay [4] the test system is 24-hydroxylase mRNA. As to the kind of experiment: RT-PCR of 24-hydroxylase mRNA in HL-60 cells. It is filed as cell-based, human. To be noted: paricalcitol 0.01 μM, arsenic trioxide 0.8 μM, after 24 hrs. The protocol: (§3) HL-60 and NB-4 myeloid leukemia cell lines were treated with paricalcitol (0.01 μM for HL-60, 0.1 μM for NB-4) and/or arsenic trioxide (0.8 μM for HL-60, 0.6 μM for NB-4). Control cells were treated with vehicle alone. […] Cell lysates were also made and used for Western blot which was probed with antibodies to C/EBPβ. (B) Cell lysate of HL-60 cells were made after 3 days and used for Western blot which was probed sequentially with antibodies to Bcl-2, BclXL and Bax (C) Cell lysates of HL-60 cells were made after 1, 2 or 3 days and used for Western blot which was probed sequentially with antibodies to phosphorylated ERK. (D) After pretreatment either with or without […] of PD98059 for 1 hour, HL-60 cells were treated with paricalcitol (0.01 μM) and/or arsenic trioxide (0.8 μM) for 2 days. Control cells were treated with vehicle alone. CD14 expression was measured by flow cytometry.
(§4) In FIG. 6B, HT-29 colon cancer cells were treated with paricalcitol (10^−7M) for 0, 6, 12 or 24 hrs and RNA was harvested. Expression of 24 hydroxylase mRNA was analysed by RT-PCR. The amounts of mRNA were normalized by comparison to 18S RNA. In FIG. 6C, mononuclear cells extracted from spleens of either wild type or VDR knock-out mice were treated with paricalcitol (10^−8M) for either 12 or 24 hrs, and RNA was harvested. Expression of 24 hydroxylase mRNA was analysed by RT-PCR. […]

For assay [5], the system named is 24-hydroxylase mRNA. As to the kind of experiment: RT-PCR of 24-hydroxylase mRNA in NB-4 cells. It is filed as cell-based, human. To be noted: paricalcitol 0.1 μM, arsenic trioxide 0.6 μM, after 24 hrs. The protocol:
as §3, §4

On to `C[C@H](/C=C/[C@H](C)C(C)(C)O)[C@H]1CC[C@H]2/C(=C/C=C3C[C@@H](O)C[C@H](O)C3)CCC[C@]12C` [paricalcitol, 19-nor-1,25, (OH)2D3], for which the EC50 came out at 2.4 nM with HL-60 cells [1]; 17 nM with HT-29 cells; 3.4 nM with NB-4 cells; 0.02 nM with NCI-H929 cells; 46 nM with SW837; 5.8 nM with THP-1. Besides, the morphological examination entry in the assay on HL-60 cells [2] is given as “monocytic differentiation”. Also, in assay [3], the “antiproliferative effect by MTT assay” value is “sensitive”. Moreover, the “mRNA levels of 24-hydroxylase” value in the assay with 24-hydroxylase mRNA [4] and in the assay with 24-hydroxylase mRNA [5] was “increased” in each case.
